This note sets out measurements from patent publication US4451476A (priority 1983, dated 1984).

The test system of assay [1] is Echo-9. Description: In vitro MIC against Echo-9. Format: cell-based.
The subject of assay [2] is rhinovirus Type 2. Description: microbe, parasite or virus in culture. It is filed as cell-based. The following applies: for MIC: Enterovirus, read-out: MIC vs. rhinovirus Type 2 in vitro.
For assay [3], the system named is Polio-3. The assay can be described thus: microbe, parasite or virus in culture. Format: cell-based. Conditions: read-out: MIC vs. Polio-3.
Assay [4] concerns Echo-11. The assay can be described thus: microbe, parasite or virus in culture. Format: cell-based. Conditions: read-out: MIC vs. Echo-11.
The subject of assay [5] is poliovirus. Description: animal or person. Format: in vivo, mice.
The subject of assay [6] is human rhinovirus serotypes. It is filed as cell-based.
Assay [7] concerns picornaviruses and enteroviruses. It is filed as cell-based.
In assay [8] the test system is poliovirus. It is filed as in vivo, mice. Conditions: parenteral medication.
The test system of assay [9] is polio-2 virus. Description: microbe, parasite or virus in culture. It is filed as cell-based. Conditions: read-out: MIC vs. polio-2 virus.

Values after ≈ are worked out from the molar mass of the structure shown. “Also recorded” adds a separate entry of the source. Bounds are passed on as bounds.

With `COc1ccc(OCCCCCCCc2cc(C)no2)c(Cl)c1` [Example 2, 5-[7-(2-Chloro-4-methoxyphenoxy)heptyl]-3-methylisoxazole], the MIC stood at 0.15 µg/mL (≈ 0.444 µM) in [1], 0.08 µg/mL (≈ 0.237 µM) in assay [3], 0.04 µg/mL (≈ 0.118 µM) in assay [4] and 0.15 µg/mL (≈ 0.444 µM) in [9]. Moreover, in assay [2], the “times as active in vitro against rhinovirus Type 2 as the corresponding 2-chloro-4-methoxyphenoxy compounds of U.S. Pat. No. 4,268,678” value is recorded as “at least 15 times”. Besides, the minimal effective dose in [5] (Enterovirus C, in Mus musculus, po, 336 h, read-out: minimal inhibitory dose) was 31 mg/kg. Besides, the “in vivo activity against poliovirus infections in mice” value is “active in vivo” in [5] and “in vivo activity against poliovirus infections in mice” in [5] (listed as 5-[7-(2-chloro-4-methoxyphenoxy)heptyl]-3-methylisoxazole). Besides, the “human rhinovirus serotypes against which active” value in [6] is 24 of 27. The “most common human rhinovirus serotypes against which active” value in assay [6] is on record as “six of the seven”. The “in vitro activity against picornaviruses and enteroviruses” value in assay [7] was “in vitro activity against a variety of picornaviruses and enteroviruses; also recorded: active against other picornaviruses and enterviruses”. Moreover, in assay [8] (mice), the “challenge doses of poliovirus at which death was prevented” value is listed as at most 200 LD50. The “prevention of death in mice infected with poliovirus” value in assay [8] (challenge doses as high as 200 LD50) is listed as “prevented death”.

As for `COc1ccc(OCCCCCCc2cc(C)no2)c(Cl)c1` [Example 3, 5-[6-(2-Chloro-4-methoxyphenoxy)hexyl]-3-methylisoxazole], in assay [2], the MIC came to 0.8 µg/mL (≈ 2.47 µM).

As for `COc1ccc(OCCCCCc2cc(C)no2)c(Cl)c1` [Example 4, 5-[5-(2-Chloro-4-methoxyphenoxy)pentyl]-3-methylisoxazole], the MIC in assay [2] is 0.4 µg/mL (≈ 1.29 µM).

Turning to `Cc1cc(CCCCCCCOc2ccc(C#N)cc2)on1` [Example 5, 5-[7-(4-Cyanophenoxy)heptyl]-3-methylisoxazole], the “activity vs. rhinovirus Type 2 in vitro” value in assay [2] was “inactive”.

On to `Cc1cc(CCCCCCOc2ccc(C#N)cc2)on1` [Example 6, 5-[6-(4-Cyanophenoxy)hexyl]-3-methylisoxazole], for which, in [2], the MIC was found to be 3.1 µg/mL (≈ 10.9 µM).

Take `Cc1cc(CCCCCOc2ccc(C#N)cc2)on1` [Example 7, 5-[5-(4-Cyanophenoxy)pentyl]-3-methylisoxazole]: the “activity vs. rhinovirus Type 2 in vitro” value in assay [2] was “inactive”.

Take `Cc1cc(CCCCCCCOc2ccc(C(=O)OC(C)(C)C)cc2)on1` [Example 8, 5-[7-(4-Tertiary-butyloxycarbonylphenoxy)heptyl]-3-methylisoxazole]: in [2], the MIC amounted to 6.2 µg/mL (≈ 16.6 µM).

Turning to `Cc1cc(CCCCCCCCOc2ccc(C#N)cc2)on1` [Example 10, 5-[8-(4-Cyanophenoxy)octyl]-3-methylisoxazole], the “activity vs. rhinovirus Type 2 in vitro” value in assay [2] was “inactive”.

Turning to `Cc1cc(CCCCCCCOc2ccc(OC(C)C)cc2)on1` [Example 11, 3-Methyl-5-[7-(4-isopropoxyphenoxy)heptyl]isoxazole], the MIC in assay [2] stood at 0.65 µg/mL (≈ 1.96 µM).

In the case of `Cc1cc(CCCCCCCOc2ccc(C(C)C)cc2)on1` [Example 12, 3-Methyl-5-[7-(4-isopropylphenoxy)heptyl]isoxazole], the MIC in assay [2] was determined as 0.98 µg/mL (≈ 3.11 µM).

Take `Cc1cc(CCCCCCCOc2ccc(Cl)cc2)on1` [Example 14, 3-Methyl-5-[7-(4-chlorophenoxy)heptyl]isoxazole]: the results for the MIC in assay [2] and in assay [9] were 1.5 µg/mL (≈ 4.87 µM) and 0.4 µg/mL (≈ 1.3 µM), respectively.

In the case of `Cc1ccc(OCCCCCCCc2cc(C)no2)c(Cl)c1` [Example 15, 5-[7-(2-Chloro-4-methylphenoxy)heptyl]-3-methylisoxazole], the values for the MIC in assay [2] and in assay [9] were 1.2 µg/mL (≈ 3.73 µM) and 0.82 µg/mL (≈ 2.55 µM), respectively.

Take `Cc1cc(CCCCCCCOc2ccc(C(=O)O)cc2)on1` [Example 16, 5-[7-(4-Carboxyphenoxy)heptyl]-3-methylisoxazole]: the MIC in assay [2] was determined as 10 µg/mL (≈ 31.5 µM).

For the molecule `Cc1cc(CCCCCOc2ccc(C(=O)O)cc2)on1` [Example 17, 5-[5-(4-Carboxyphenoxy)pentyl]-3-methylisoxazole], the MIC in assay [2] came out at 12.5 µg/mL (≈ 43.2 µM).

Turning to `Cc1cc(CCCCCCCOc2cccc(C(=O)O)c2)on1` [Example 19, 5-[7-(3-Carboxyphenoxy)heptyl]-3-methylisoxazole], the “activity vs. rhinovirus Type 2 in vitro” value in assay [2] was “inactive”.

On to `Cc1cc(CCCCCCCCOc2ccc(C(=O)O)cc2)on1` [Example 20, 5-[8-(4-Carboxyphenoxy)octyl]-3-methylisoxazole], for which, in assay [2], the “activity vs. rhinovirus Type 2 in vitro” value was “inactive”.

For the molecule `CCOC(=O)c1ccc(OCCCCCCCc2cc(C)no2)cc1` [Example 22, 5-[7-(4-Ethoxycarbonylphenoxy)heptyl]-3-methylisoxazole], in assay [2], the MIC was 0.025 µg/mL (≈ 0.0724 µM).

With `CCOC(=O)c1ccc(OCCCCCc2cc(C)no2)cc1` [Example 23, 5-[5-(4-Ethoxycarbonylphenoxy)pentyl]-3-methylisoxazole], the MIC in assay [2] amounted to 0.015 µg/mL (≈ 0.0473 µM).

For `CCOC(=O)c1ccc(OCCCCCCc2cc(C)no2)cc1` [Example 24, 5-[6-(4-Ethoxycarbonylphenoxy)hexyl]-3-methylisoxazole], the MIC in [2] worked out at 0.025 µg/mL (≈ 0.0754 µM).

Consider `CCOC(=O)c1ccc(OCCCCCCCCc2cc(C)no2)cc1` [Example 25, 5-[8-(4-Ethoxycarbonylphenoxy)octyl]-3-methylisoxazole], for which the MIC in assay [2] came to 0.05 µg/mL (≈ 0.139 µM).

On to `CCOC(=O)c1cccc(OCCCCCCCc2cc(C)no2)c1` [Example 26, 5-[7-(3-Ethoxycarbonylphenoxy)heptyl]-3-methylisoxazole], for which the MIC in assay [2] turned out to be 1.6 µg/mL (≈ 4.63 µM).

For `Cc1cc(CCCCCCCOc2ccc(C(=O)OC(C)C)cc2)on1` [Example 27, 5-[7-(4-Isopropyloxycarbonylphenoxy)heptyl]-3-methylisoxazole], in [2], the MIC amounted to 0.23 µg/mL (≈ 0.64 µM).

Consider `CCCOC(=O)c1ccc(OCCCCCCCc2cc(C)no2)cc1` [Example 28, 5-[7-(4-Propyloxycarbonylphenoxy)heptyl]-3-methylisoxazole], for which the MIC in assay [2] came to 0.07 µg/mL (≈ 0.195 µM).

Regarding `COC(=O)c1ccc(OCCCCCCCc2cc(C)no2)cc1` [Example 29, 5-[7-(4-Methoxycarbonylphenoxy)heptyl]-3-methylisoxazole], in assay [2], the MIC was found to be 3 µg/mL (≈ 9.05 µM).

Turning to `CCOC(=O)c1ccc(OCCCCc2cc(C)no2)cc1` [Example 30, 5-[4-(4-Ethoxycarbonylphenoxy)butyl]-3-methylisoxazole], in assay [2], the MIC turned out to be 3.1 µg/mL (≈ 10.2 µM).

`CC(=O)c1ccc(OCCCCCCCc2cc(C)no2)cc1` [Example 31, 5-[7-(4-Acetylphenoxy)heptyl]-3-methylisoxazole]: in assay [2], the MIC was determined as 1.6 µg/mL (≈ 5.07 µM).

On to `CCC(=O)c1ccc(OCCCCCCCc2cc(C)no2)cc1` [Example 32, 5-[7-(4-Propionylphenoxy)heptyl]-3-methylisoxazole], for which the MIC in assay [2] worked out at 1.7 µg/mL (≈ 5.16 µM).

For `Cc1cc(CCCCCCCOc2ccc(C(=O)NN)cc2)on1` [Example 33, 5-[7-(4-Hydrazinocarbonylphenoxy)heptyl]-3-methylisoxazole], the MIC in [2] was found to be 0.64 µg/mL (≈ 1.93 µM).

For the molecule `Cc1cc(CCCCCCCOc2ccc(C(N)=O)cc2)on1` [Example 34, 5-[7-(4-Carbamylphenoxy)heptyl]-3-methylisoxazole], the “activity vs. rhinovirus Type 2 in vitro” value in assay [2] is listed as “not active”.

Turning to `Cc1cc(CCCCCCCOc2ccc(C(=O)N(C)C)cc2)on1` [Example 35(b), N,N-dimethyl-4-[7-(3-methyl-5-isoxazolyl)heptyloxy]benzamide], in assay [9], the MIC came to 2.5 µg/mL (≈ 7.26 µM).

Consider `CCC(=NO)c1ccc(OCCCCCCCc2cc(C)no2)cc1` [Example 36, 5-[7-(4-Propionylphenoxy)heptyl]-3-methylisoxazole oxime], for which the values for the MIC in [2] and in [9] were 2.6 µg/mL (≈ 7.55 µM) and 0.2 µg/mL (≈ 0.581 µM), respectively.

In the case of `Cc1cc(CCCCCCCOc2ccc([N+](=O)[O-])cc2)on1` [Example 37(b), 3-methyl-5-[7-(4-nitrophenoxy)heptyl]isoxazole], the MIC in assay [9] was found to be 1.5 µg/mL (≈ 4.71 µM).

On to `COc1ccc(OCCCCCCCc2cc(C)no2)c([N+](=O)[O-])c1` [Example 38, 3-Methyl-5-[7-(2-nitro-4-methoxyphenoxy)heptyl]isoxazole], for which the MIC in assay [2] is 0.3 µg/mL (≈ 0.861 µM); in assay [9] it was 0.17 µg/mL (≈ 0.488 µM).

In the case of `Cc1cc(CCCCCCCc2ccc(C#N)cc2)on1` [Example 39(f), 5-[7-(4-Cyanophenyl)heptyl]-3-methylisoxazole], the MIC in [2] worked out at 11.2 µg/mL (≈ 39.7 µM).

Regarding `COc1ccc(OCCCCCc2cc(C)on2)c(Cl)c1` [Example 41, 3-[5-(2-Chloro-4-methoxyphenoxy)pentyl]-5-methylisoxazole], the MIC in assay [2] stood at 0.7 µg/mL (≈ 2.26 µM); in [9] it was 1.4 µg/mL (≈ 4.52 µM).
